The values below come from patent US6153640A, “Benzo[3,4]cyclobuta[1,2-c]pyrrole compounds” (Adir et Compagnie, priority 1999, dated 2000).

The subject of one assay is male CD mice. In words: Test of aggressiveness in isolated mice. As to conditions: Mus musculus, ip, 0.5 h; i.p.; treatment 30 minutes before pairing; 3 minutes observation; read-out: Inhibitory Dose 50 of the number or duration of the attacks. The format is in vivo. From the text:
This test allows the evaluation of the intraspecies anti-aggressive activity of a product in mice that have been kept in isolation for several months.
The test uses male CD mice (Charles River) weighing from 22 to 25 g when they arrive at the animal house. On their arrival, the animals are isolated in individual cages made of opaque black polycarbonate (23×14×13 cm) with a grill lid, and are housed for a prolonged period (approximately six months) in the experimentation room.
The selection of aggressive pairs of mice that will be used for an extended period in the study commences after the animals have been isolated for one month. Once or twice per week a mouse from another cage (intruder) is placed in the cage of a (resident) mouse and the two animals are observed to see if they attack one another (sniffing, pursuing, nicking, biting) during that trial. At the end of the trial (maximum duration 10 minutes), each mouse is isolated again in its own cage. If attacks have occurred, the same pair will be tested again in the next trial; if there have been no attacks, each mouse of that pair will be placed in the presence of another mouse in the subsequent trial. […]
The test takes place once a week. […] The latent period (in seconds) of the first attack and the number and total duration (in seconds) of the attacks are recorded. […]

The next assay concerns the target T1, serotonin reuptake site (Rattus norvegicus, UniProt P31652).
T1 construct: The membranes are prepared from rat frontal cortex; from tissue; host or cells: rat frontal cortex membranes
In words: Affinity for serotonin reuptake sites ([3H]-paroxetine competition binding). As to conditions: [3H]-paroxetine 1.0 nM, rat frontal cortex membranes, 2 hours at 25° C., pH 7.4; read-out: pKi (-log Ki), affinity for serotonin reuptake sites (converted). How it is done: The incubation buffer contains […] TRIS-HCl (pH 7.4), 120 mM NaCl and 5 mM KCl. The non-specific binding is determined using 10 μM citalopram. At the end of the incubation, the incubation medium is filtered and washed three times with 5 ml of cooled buffer. The radioactivity retained on the filters is determined by liquid scintillation counting. The binding isotherms are analysed by non-linear regression to determine the IC50 values. Those values are converted into a dissociation constant (Ki) using the Cheng-Prusoff equation: […]
The results are expressed in pKi (-log Ki).

Assay [1] deals with levels of serotonin, dopamine and noradrenaline in cingulate frontal cortex. In words: Microdialysis experiment in the rat (frontal cortex). It is filed as in vivo. As to conditions: 10 mg/kg subcutaneous, baseline defined as 0%. How it is done: Rats are anaesthetised with pentobarbital (60 mg/kg i.p.). They are placed in a Kopf stereotaxic device and the cannula guide is implanted in the cingulate frontal cortex in accordance with the coordinates described in the Paxinos and Watson atlas (1982) as follows: AP=+2.2; L=±0.6; DV=-0.2. The rats are placed in separate cages and are not used in dialysis until 5 days later. […] The probe is perfused at a flow rate of 1 μl/min. with a solution of 147.2 mM NaCl, 4 mM KCl and 2.3 mM CaCl2 adjusted to pH 7.3 with a phosphate buffer (0.1 M). Two hours after implantation, samples are collected every 20 minutes for 4 hours. Three baseline samples are taken before administration of the products to be tested. The rats are left in their individual cages for the whole of the experiment. When the experiment is finished, the rats are decapitated and the brain is removed and frozen in isopentane. Sections of a thickness of 100 μm are cut and stained with cresyl violet, which allows verification of the location of the probes. The simultaneous quantification of dopamine, norepinephrine and serotonin is carried out as follows: 20 μl of dialysis sample are diluted with 20 μl of mobile phase (NaH2 PO4 : 75 mM; EDTA: 20 μM; sodium 1-decanesulphonate: 1 mM; methanol: 17.5%; triethylamine: 0.01%; pH: 5.70) and 33 μl are analysed by HPLC with a reverse phase column thermostatically maintained at 45° C. and are quantified by means of a coulometric detector. The potential of the first electrode of the detector is set at -90 mV (reduction) and the second at +280 mV (oxidation). The mobile phase is injected with a pump at a flow rate of 2 ml/min. The sensitivity limits for dopamine, norepinephrine and serotonin are 0.55 fmole per sample. All the products of the invention are injected subcutaneously in a volume of 1.0 ml/kg. The products are dissolved in distilled water to which a few drops of lactic acid have been added if necessary.

SMILES strings stand for the structures. A value given as a limit tells only on which side of the number the result lay.

T1 sequence (P31652 whole entry): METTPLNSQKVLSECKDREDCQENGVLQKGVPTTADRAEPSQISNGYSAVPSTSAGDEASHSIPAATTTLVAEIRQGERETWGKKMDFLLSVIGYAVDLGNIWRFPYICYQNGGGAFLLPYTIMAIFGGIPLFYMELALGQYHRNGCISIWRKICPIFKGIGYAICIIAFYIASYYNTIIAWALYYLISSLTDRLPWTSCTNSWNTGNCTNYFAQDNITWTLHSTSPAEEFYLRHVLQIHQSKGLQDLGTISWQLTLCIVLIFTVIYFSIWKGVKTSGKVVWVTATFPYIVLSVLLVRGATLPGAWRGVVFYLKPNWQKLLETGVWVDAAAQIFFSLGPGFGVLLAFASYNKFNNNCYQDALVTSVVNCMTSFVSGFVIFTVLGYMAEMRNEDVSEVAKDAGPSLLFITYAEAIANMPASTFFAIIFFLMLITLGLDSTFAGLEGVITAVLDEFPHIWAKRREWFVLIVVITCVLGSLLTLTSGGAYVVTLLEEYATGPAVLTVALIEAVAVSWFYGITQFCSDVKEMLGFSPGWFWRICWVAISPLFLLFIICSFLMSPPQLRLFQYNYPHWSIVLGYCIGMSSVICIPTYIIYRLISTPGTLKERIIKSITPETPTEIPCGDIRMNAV

As for `c1ccc2c(c1)[C@@H]1CNC[C@]21COc1ccc2c(c1)OCO2` (relative stereo) [Example 1, cis-3a-[(3,4-Methylenedioxyphenoxy)methyl]-2,3,3a,7b-tetrahydro-1H-benzo[3,4]cyclobuta[1,2-c]pyrrole], the ED50 in the assay with male CD mice is under 5 mg/kg. For the same compound, the Ki – broadly, the equilibrium dissociation constant of an inhibitor or competing ligand from its target – at serotonin reuptake site is 12.6 nM. In assay [1], the “increase in the level of dopamine, maximum % of the effect compared with the baseline level” value was 54.8%±6.4; the “increase in the level of noradrenaline, maximum % of the effect compared with the baseline level” value is 96.4%±7.8; the “increase in the level of serotonin, maximum % of the effect compared with the baseline level” value is given as 226.3%±20.1.
